Experimental data published in US20080234131A1, “Herbicidal Mixtures of Cinmethylin” (priority 2005, published 2008).

Test system: LOLMG
Assay: Pre-emergence herbicidal trial, tank-mix incorporated into the soil, damage rated 0-100% against untreated control plots
Assay type: in vivo, lolium multiflorum
Description: The mixtures according to the invention are applied pre-emergence as tank-mix which is incorporated into the soil. The herbicidal compounds of component A) and B) are applied in the formulation in which they are present as commercially available product. […] For comparison the synergistic effect is estimated as follows: The value E at which only an additive effect of the individual active ingredients is to be expected is calculated by the method of S. R. […] This is done using the formula […] where • X=Percentage of the herbicidal action of component A) at an application rate of a; • Y=Percentage of the herbicidal action of component B) at an application rate of b; • E=expected herbicidal action of component A)+B) at rates of application a+b (in %). If the value observed exceeds the value E calculated in accordance with Colby's formula, then synergism is present.

With `Cc1ccccc1CO[C@@H]1C[C@@]2(C(C)C)CC[C@]1(C)O2` [Cinmethylin, exo(+)-1-methyl-4-(1-methylethyl)-2-[(2-methylphenyl)methoxy]-7-oxabicyclo[2.2.1]heptane] the “% control of LOLMG” value (Cinmethylin 200 g/ha solo) was 58% and the “% control of LOLMG” value (Cinmethylin 400 g/ha solo) was 67%.

In the case of `CCC(CC)Nc1c([N+](=O)[O-])cc(C)c(C)c1[N+](=O)[O-]` [Pendimethalin], the “% control of LOLMG” value (Pendimethalin 600 g/ha solo) is reported as 56%.

With `CCCN(CCC)c1c([N+](=O)[O-])cc(C(F)(F)F)cc1[N+](=O)[O-]` [Trifluralin] the “% control of LOLMG” value (Trifluralin 500 g/ha solo) was 59%.
